4 molecules from patent publication US7256208B2 (priority 2003, dated 2007) can be followed below.

The target of one data set is T1, AR (Rattus norvegicus, UniProt P15207).
T1 sequence (P15207 1-902): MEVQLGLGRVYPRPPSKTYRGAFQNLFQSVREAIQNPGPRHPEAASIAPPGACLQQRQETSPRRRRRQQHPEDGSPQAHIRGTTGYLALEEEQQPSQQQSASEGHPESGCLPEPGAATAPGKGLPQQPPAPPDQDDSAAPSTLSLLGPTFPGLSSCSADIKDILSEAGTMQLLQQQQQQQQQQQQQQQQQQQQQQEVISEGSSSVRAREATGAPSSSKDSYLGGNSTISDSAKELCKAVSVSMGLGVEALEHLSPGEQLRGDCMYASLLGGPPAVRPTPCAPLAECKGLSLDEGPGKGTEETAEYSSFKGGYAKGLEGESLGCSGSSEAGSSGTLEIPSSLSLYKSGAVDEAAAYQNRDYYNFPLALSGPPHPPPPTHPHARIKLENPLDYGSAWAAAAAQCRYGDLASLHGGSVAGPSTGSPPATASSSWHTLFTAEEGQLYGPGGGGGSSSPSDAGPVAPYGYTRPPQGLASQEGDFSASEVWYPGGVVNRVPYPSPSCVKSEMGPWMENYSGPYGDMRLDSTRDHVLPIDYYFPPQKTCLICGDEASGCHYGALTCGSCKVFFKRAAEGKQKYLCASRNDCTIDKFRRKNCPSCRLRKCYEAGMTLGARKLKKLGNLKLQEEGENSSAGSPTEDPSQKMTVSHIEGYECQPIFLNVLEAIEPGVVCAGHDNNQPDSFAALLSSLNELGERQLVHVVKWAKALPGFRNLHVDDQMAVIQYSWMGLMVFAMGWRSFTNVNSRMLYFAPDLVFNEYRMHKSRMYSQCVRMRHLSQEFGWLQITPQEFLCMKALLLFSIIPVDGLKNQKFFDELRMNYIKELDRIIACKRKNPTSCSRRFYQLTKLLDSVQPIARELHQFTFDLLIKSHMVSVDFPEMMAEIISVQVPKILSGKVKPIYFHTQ
From the text:
The activity of compounds of the present invention as AR agonists was investigated in an immature male rat model, a recognized test of anabolic effects in muscle and sustaining effects in sex organs for a given compound, as described in L. G. Hershberger et al., Proc. Soc. […] Biol. Med., 83, 175 (1953); B. L. Beyler et al, “Methods for evaluating anabolic and catabolic agents in laboratory animals”, J. Amer. Med. Women's Ass., 23, 708 (1968); H. Fukuda et al., “Investigations of the levator ani muscle as an anabolic steroid assay”, Nago Dai. Yak. Ken. Nem. 14, 84 (1966) the disclosures of which are herein incorporated by reference.
The basis of this assay lies in the well-defined action of androgenic agents on the maintenance and growth of muscle tissues and sexual accessory organs in animals and man. […] J. Anat. […] Ital. Biol. Sper. […] II. […] Ital. Biol. Sper. 42, 1600 (1966); A. Boris et al., Steroids 15, 61 (1970). As described above, the effects of androgens on maintenance of male sexual accessory organs, such as the prostate and seminal vesicles, is well described. Castration results in rapid involution and atrophy of the prostate and seminal vesicles. This effect can be reversed by exogenous addition of androgens. […]

The subject of data set [1] is wild type AR (MDA 453 cells). The note with it: read-out: Kd for [3H]-DHT, Scatchard analysis. How it is done:
For the whole-cell binding assay, human LNCaP cells (T877A mutant AR) or MDA 453 (wild type AR) in 96-well microtiter plates containing RPMI 1640 or DMEM supplemented with 10% charcoal stripped CA-FBS (Cocaleco Biologicals) respectively, were incubated at 37° C. to remove any endogenous ligand that might be complexed with the receptor in the cells.
For the saturation analysis, the difference between the total binding and the non-specific binding, was defined as specific binding. […] See e.g. D. Rodbard, Mathematics and statistics of ligand assays: an illustrated guide: In: J. Langon and J. J. Clapp, eds., Ligand Assay, Masson Publishing U.S.A., Inc., New York, pp. 45-99, (1981), the disclosure of which is herein incorporated by reference.
Two replicates were used for each sample.

`N#Cc1ccc(N2C(=O)N/C(=C\c3ccccc3O)C2=O)c2ccccc12` displayed a melting point of 251 to 252 °C.
The same measure, in the same setting: the figure for `N#Cc1ccc(N2C(=O)N/C(=C\c3ccc(O)cc3)C2=O)c2ccccc12` is above 275 °C.
`CCC(=O)O[C@H]1CC[C@H]2[C@@H]3CCC4=CC(=O)CC[C@]4(C)[C@H]3CC[C@]12C` [TP, testosterone propionate]: the “potency relative to free T” value at AR (TP versus free T) is recorded as 10-30 fold. In addition, on AR (castrated rats, dosing for 3 days), the “EC50 (increase in organ weight)” value is on record as around 0.03 mg.
Consider “tritiated dihydrotestosterone [[^3H]-DHT]”, for which the Kd in data set [1] stood at 0.7 nM.
